According to article PMC9234961 (Journal of Medicinal Chemistry, 2022):
Where two headings read alike, the source gives them in different places.

Tests used:
kinases (468) [1] = target: kinases (468) (Homo sapiens, UniProt P22607, G697C); conditions: FGFR3(G697C); 1000 nM
kinases (468) [2] = target: kinases (468) (Homo sapiens, UniProt Q9Y243); conditions: AKT3; 1000 nM
kinases (468) [3] = target: kinases (468) (Homo sapiens, UniProt Q8IU85); conditions: CAMK1D; 1000 nM
kinases (468) [4] = target: kinases (468) (Homo sapiens, UniProt Q13153); conditions: PAK1; 1000 nM
kinases (468) [5] = target: kinases (468) (Homo sapiens, UniProt O14757); conditions: CHEK1; 1000 nM
kinases (468) [6] = target: kinases (468) (Homo sapiens, UniProt O14733); conditions: MKK7 (MAP2K7); 1000 nM
kinases (468) [7] = target: kinases (468) (Homo sapiens, UniProt P27361); conditions: ERK1 (MAPK3); 1000 nM
kinases (468) [8] = target: kinases (468) (Homo sapiens, UniProt P17948); conditions: FLT1; 1000 nM
kinases (468) [9] = target: kinases (468) (Homo sapiens, UniProt Q15418); conditions: compound concentration 1000 nM
kinases (468) [10] = target: kinases (468) (Homo sapiens, UniProt O14965); conditions: AURKA; 1000 nM
kinases (468) [11] = target: kinases (468) (Homo sapiens, UniProt Q96RR4); conditions: CAMKK2; 1000 nM
kinases (468) [12] = target: kinases (468) (Homo sapiens, UniProt Q13627); conditions: DYRK1A; 1000 nM
kinases (468) [13] = target: kinases (468) (Homo sapiens, UniProt Q9UQM7); conditions: CAMK2A; 1000 nM
kinases (468) [14] = target: kinases (468) (Homo sapiens, UniProt Q02156); conditions: PRKCE; 1000 nM
kinases (468) [15] = target: kinases (468) (Homo sapiens, UniProt P11309); conditions: PIM1; 1000 nM
kinases (468) [16] = target: kinases (468) (Homo sapiens, UniProt P35968); conditions: kinase VEGFR2 (Entrez KDR); compound concentration 1000 nM
kinases (468) [17] = target: kinases (468) (Homo sapiens, UniProt Q05655); conditions: PRKCD; 1000 nM
kinases (468) [18] = target: kinases (468) (Homo sapiens, UniProt P48729); conditions: CSNK1A1; 1000 nM
kinases (468) [19] = target: kinases (468) (Homo sapiens, UniProt Q13546); conditions: kinase RIPK1 (Entrez RIPK1); compound concentration 1000 nM
kinases (468) [20] = target: kinases (468) (Homo sapiens, UniProt Q96J92); conditions: kinase WNK4 (Entrez WNK4); compound concentration 1000 nM
kinases (468) [21] = target: kinases (468) (Homo sapiens, UniProt P12931); conditions: kinase SRC (Entrez SRC); compound concentration 1000 nM
kinases (468) [22] = target: kinases (468) (Homo sapiens, UniProt Q8NEB9); conditions: kinase VPS34 (Entrez PIK3C3); compound concentration 1000 nM
kinases (468) [23] = target: kinases (468) (Homo sapiens, UniProt Q15759); conditions: p38-beta (MAPK11); 1000 nM
kinases (468) [24] = target: kinases (468) (Homo sapiens, UniProt Q9HC98); conditions: NEK6; 1000 nM
kinases (468) [25] = target: kinases (468) (Homo sapiens, UniProt Q9NSY1); conditions: BIKE (BMP2K); 1000 nM
kinases (468) [26] = target: kinases (468) (Homo sapiens, UniProt P10721, V559D); conditions: KIT(V559D); 1000 nM
kinases (468) [27] = target: kinases (468) (Homo sapiens, UniProt Q16513); conditions: PKN2; 1000 nM
kinases (468) [28] = target: kinases (468) (Homo sapiens, UniProt P31751); conditions: AKT2; 1000 nM
kinases (468) [29] = target: kinases (468) (Homo sapiens, UniProt O14936); conditions: CASK; 1000 nM
kinases (468) [30] = target: kinases (468) (Homo sapiens, UniProt P42679); conditions: CTK (MATK); 1000 nM
kinases (468) [31] = target: kinases (468) (Homo sapiens, UniProt P29323); conditions: EPHB2; 1000 nM
kinases (468) [32] = target: kinases (468) (Homo sapiens, UniProt P42336, H1047Y); conditions: PIK3CA(H1047Y); 1000 nM
kinases (468) [33] = target: kinases (468) (Homo sapiens, UniProt Q9Y6R4); conditions: MAP3K4; 1000 nM
kinases (468) [34] = target: kinases (468) (Homo sapiens, UniProt Q9UQB9); conditions: AURKC; 1000 nM
kinases (468) [35] = target: kinases (468) (Homo sapiens, UniProt P49137); conditions: MAPKAPK2; 1000 nM

Sequence of kinases (468) (Homo sapiens, UniProt Q15418) (Q15418 whole entry): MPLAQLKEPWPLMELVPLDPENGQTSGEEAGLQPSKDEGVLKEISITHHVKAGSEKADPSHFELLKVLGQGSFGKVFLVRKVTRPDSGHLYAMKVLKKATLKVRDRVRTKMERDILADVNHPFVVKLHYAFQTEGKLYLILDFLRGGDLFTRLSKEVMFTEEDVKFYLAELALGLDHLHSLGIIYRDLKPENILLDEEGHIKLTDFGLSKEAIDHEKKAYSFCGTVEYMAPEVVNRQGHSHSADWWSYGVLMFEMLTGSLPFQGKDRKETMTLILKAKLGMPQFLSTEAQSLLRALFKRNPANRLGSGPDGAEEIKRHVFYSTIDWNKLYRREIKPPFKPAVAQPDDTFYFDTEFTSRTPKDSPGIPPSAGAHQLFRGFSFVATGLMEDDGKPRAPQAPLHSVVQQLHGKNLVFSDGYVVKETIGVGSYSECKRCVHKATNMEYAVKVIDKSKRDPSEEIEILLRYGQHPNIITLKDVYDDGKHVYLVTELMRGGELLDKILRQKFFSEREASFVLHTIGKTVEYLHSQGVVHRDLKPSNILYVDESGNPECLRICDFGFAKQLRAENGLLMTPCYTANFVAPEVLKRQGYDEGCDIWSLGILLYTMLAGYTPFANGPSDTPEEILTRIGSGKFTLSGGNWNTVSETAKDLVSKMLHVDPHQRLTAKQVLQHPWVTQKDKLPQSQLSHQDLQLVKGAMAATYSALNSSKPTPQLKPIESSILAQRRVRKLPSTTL
Sequence of kinases (468) (Homo sapiens, UniProt Q9Y243) (Q9Y243 whole entry): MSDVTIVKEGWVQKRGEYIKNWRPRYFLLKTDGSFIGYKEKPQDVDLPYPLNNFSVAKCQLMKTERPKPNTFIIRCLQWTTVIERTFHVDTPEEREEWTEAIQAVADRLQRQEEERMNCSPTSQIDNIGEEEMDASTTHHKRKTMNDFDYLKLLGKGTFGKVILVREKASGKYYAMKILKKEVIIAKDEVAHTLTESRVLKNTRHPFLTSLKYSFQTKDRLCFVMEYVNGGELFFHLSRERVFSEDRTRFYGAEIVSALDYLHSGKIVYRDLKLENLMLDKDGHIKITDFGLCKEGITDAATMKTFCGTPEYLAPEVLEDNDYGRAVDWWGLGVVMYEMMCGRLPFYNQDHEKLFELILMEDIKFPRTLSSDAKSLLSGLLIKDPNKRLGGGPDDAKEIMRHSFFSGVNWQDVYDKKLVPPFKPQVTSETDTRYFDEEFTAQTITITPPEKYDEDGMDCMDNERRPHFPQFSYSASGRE
Sequence of kinases (468) (Homo sapiens, UniProt P27361) (P27361 whole entry): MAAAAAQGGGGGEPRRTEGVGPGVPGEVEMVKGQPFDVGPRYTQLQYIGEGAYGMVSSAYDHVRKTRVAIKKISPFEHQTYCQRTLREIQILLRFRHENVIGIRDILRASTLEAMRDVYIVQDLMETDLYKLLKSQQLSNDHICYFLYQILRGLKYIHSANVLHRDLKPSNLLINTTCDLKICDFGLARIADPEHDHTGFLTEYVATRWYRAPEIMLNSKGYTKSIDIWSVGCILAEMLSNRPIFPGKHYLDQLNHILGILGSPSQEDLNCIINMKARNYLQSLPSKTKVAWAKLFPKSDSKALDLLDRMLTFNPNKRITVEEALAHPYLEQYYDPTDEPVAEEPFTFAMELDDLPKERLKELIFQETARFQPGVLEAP
Sequence of kinases (468) (Homo sapiens, UniProt Q9HC98) (Q9HC98 whole entry): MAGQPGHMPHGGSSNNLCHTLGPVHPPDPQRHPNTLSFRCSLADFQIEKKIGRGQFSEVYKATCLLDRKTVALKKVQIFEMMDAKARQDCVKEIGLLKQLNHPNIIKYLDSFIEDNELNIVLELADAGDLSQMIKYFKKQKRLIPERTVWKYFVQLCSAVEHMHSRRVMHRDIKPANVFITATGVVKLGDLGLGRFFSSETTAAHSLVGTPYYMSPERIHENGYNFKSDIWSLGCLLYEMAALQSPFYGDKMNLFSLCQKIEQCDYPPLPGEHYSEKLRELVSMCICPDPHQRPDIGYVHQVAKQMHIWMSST
Sequence of kinases (468) (Homo sapiens, UniProt Q9UQM7) (Q9UQM7 whole entry): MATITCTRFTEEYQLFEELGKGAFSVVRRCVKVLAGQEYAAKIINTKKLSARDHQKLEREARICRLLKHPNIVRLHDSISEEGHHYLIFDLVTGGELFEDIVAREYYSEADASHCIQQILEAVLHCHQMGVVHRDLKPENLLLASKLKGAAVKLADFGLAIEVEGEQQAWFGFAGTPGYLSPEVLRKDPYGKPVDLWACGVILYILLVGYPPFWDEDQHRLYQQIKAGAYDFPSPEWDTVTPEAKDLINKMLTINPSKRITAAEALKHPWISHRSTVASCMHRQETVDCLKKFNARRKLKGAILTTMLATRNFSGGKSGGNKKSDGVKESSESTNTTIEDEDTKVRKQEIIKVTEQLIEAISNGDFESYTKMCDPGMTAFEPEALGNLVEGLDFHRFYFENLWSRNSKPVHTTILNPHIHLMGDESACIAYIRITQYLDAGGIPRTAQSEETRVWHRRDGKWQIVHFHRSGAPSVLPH
Sequence of kinases (468) (Homo sapiens, UniProt Q9Y6R4) (Q9Y6R4 whole entry): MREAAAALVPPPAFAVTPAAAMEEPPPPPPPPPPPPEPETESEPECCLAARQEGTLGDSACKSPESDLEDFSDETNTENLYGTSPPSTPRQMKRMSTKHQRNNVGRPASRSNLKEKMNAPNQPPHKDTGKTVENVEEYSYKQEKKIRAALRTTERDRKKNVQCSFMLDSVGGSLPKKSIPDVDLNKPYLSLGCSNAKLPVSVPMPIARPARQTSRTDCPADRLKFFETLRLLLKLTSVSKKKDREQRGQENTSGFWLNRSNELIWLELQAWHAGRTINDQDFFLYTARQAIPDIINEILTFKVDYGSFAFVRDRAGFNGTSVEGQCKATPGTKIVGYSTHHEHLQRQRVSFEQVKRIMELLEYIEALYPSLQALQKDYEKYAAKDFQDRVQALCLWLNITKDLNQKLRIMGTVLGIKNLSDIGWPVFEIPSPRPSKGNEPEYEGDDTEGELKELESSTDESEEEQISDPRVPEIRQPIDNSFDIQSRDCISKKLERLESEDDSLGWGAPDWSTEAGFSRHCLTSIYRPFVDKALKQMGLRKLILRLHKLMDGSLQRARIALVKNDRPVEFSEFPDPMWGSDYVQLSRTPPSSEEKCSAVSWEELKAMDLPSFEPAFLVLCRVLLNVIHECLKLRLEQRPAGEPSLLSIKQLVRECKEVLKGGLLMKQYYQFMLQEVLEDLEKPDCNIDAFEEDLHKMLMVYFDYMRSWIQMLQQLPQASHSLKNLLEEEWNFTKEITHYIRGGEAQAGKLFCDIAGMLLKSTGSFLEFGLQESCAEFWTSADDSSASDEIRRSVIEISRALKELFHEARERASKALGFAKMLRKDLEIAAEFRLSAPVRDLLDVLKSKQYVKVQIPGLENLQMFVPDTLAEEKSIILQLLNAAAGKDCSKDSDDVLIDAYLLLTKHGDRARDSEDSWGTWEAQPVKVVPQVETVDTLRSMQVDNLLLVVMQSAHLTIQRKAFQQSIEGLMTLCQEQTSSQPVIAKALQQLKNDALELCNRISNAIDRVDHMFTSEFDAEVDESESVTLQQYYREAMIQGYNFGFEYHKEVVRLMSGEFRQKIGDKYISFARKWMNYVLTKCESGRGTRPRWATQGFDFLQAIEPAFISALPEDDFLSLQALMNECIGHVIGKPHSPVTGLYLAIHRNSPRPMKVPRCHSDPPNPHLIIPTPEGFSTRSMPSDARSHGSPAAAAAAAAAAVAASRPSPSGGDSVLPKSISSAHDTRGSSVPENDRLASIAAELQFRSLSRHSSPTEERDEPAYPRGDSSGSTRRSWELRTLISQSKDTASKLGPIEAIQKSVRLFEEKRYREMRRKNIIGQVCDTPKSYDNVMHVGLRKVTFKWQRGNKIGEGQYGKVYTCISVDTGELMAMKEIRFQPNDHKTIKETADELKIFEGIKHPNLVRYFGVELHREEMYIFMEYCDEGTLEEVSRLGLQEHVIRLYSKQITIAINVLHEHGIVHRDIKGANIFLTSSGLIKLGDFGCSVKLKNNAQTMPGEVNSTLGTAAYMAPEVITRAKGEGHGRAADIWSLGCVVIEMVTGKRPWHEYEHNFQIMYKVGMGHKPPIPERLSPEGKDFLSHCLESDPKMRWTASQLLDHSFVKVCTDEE
Sequence of kinases (468) (Homo sapiens, UniProt P10721, V559D) (P10721 26-976 V559D): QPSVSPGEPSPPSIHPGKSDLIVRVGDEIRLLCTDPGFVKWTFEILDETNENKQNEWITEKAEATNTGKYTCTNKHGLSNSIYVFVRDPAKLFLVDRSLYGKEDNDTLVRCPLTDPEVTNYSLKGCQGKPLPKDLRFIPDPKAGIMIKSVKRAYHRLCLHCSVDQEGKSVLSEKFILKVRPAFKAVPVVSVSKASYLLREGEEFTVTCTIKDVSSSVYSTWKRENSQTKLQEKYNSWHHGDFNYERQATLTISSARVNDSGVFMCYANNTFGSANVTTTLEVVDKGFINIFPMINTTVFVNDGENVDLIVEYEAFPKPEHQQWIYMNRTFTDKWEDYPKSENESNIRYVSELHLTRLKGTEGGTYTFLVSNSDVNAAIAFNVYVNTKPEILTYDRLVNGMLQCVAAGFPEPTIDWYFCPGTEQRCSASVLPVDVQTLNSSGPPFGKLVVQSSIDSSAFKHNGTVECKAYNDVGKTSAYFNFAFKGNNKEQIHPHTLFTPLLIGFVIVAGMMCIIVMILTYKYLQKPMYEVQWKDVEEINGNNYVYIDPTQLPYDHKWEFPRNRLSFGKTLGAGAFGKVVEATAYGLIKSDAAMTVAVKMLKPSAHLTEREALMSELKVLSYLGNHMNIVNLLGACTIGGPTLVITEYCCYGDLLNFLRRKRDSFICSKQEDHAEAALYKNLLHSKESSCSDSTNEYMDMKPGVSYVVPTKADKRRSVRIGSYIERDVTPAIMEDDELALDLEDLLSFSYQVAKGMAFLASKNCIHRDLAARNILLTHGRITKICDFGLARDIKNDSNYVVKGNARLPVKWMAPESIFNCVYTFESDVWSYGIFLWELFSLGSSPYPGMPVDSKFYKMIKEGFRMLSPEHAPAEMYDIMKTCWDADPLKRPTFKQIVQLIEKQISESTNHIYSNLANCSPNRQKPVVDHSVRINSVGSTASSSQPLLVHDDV

C[C@H]1C[C@@H](O)CN(c2ncc(Cl)c(Nc3ccc4c(c3)c3c(c(=O)n4C)OCC(F)(F)[C@H](C4CC4)N3)n2)C1 [CCT373566_9A]
Percent Control (kinases (468) [1]): 99% | Percent Control (kinases (468) [2]): 93% | Percent Control (kinases (468) [3]): 92% | Percent Control (kinases (468) [4]): 100% | Percent Control (kinases (468) [5]): 100% | Percent Control (kinases (468) [6]): 91% | Percent Control (kinases (468) [7]): 98% | Percent Control (kinases (468) [8]): 100% | Percent Control (kinases (468) [9]; kinase RSK1(Kin.Dom.1-N-terminal) (Entrez RPS6KA1)): 95% | Percent Control (kinases (468) [9]; kinase RSK1(Kin.Dom.2-C-terminal) (Entrez RPS6KA1)): 90% | Percent Control (kinases (468) [10]): 100% | Percent Control (kinases (468) [11]): 88% | Percent Control (kinases (468) [12]): 95% | Percent Control (kinases (468) [13]): 79% | Percent Control (kinases (468) [14]): 98% | Percent Control (kinases (468) [15]): 100% | Percent Control (kinases (468) [16]): 95% | Percent Control (kinases (468) [17]): 100% | Percent Control (kinases (468) [18]): 100% | Percent Control (kinases (468) [19]): 100% | Percent Control (kinases (468) [20]): 42% | Percent Control (kinases (468) [21]): 100% | Percent Control (kinases (468) [22]): 80% | Percent Control (kinases (468) [23]): 100% | Percent Control (kinases (468) [24]): 100% | Percent Control (kinases (468) [25]): 100% | Percent Control (kinases (468) [26]): 100% | Percent Control (kinases (468) [27]): 100% | Percent Control (kinases (468) [28]): 100% | Percent Control (kinases (468) [29]): 92% | Percent Control (kinases (468) [30]): 100% | Percent Control (kinases (468) [31]): 96% | Percent Control (kinases (468) [32]): 94% | Percent Control (kinases (468) [33]): 100% | Percent Control (kinases (468) [34]): 100% | Percent Control (kinases (468) [35]): 97%
